Measured values: ChEMBL document CHEMBL6134860, “Discovery and optimization of a novel carboxamide scaffold with selective antimalarial activity” (Eur J Med Chem, 2025)
Converted amounts (≈) assume the structure as drawn.

Key:
[1] = tested on: Plasmodium falciparum; experiment: microbe, parasite or virus in culture; type: functional, organism-based; details: W2, 72 h
[2] = tested on: Plasmodium falciparum; experiment: microbe, parasite or virus in culture; type: functional, organism-based; details: 3D7, 72 h
[3] = tested on: Plasmodium falciparum; experiment: microbe, parasite or virus in culture; type: functional, organism-based; details: D6, 72 h
[4] = tested on: Plasmodium falciparum; experiment: microbe, parasite or virus in culture; type: functional, organism-based; details: C235, 72 h
[5] = tested on: Plasmodium falciparum; experiment: microbe, parasite or virus in culture; type: functional, organism-based; details: C2B, 72 h
[6] = Metabolic stability in human liver microsomes assessed as apparent intrinsic clearance
[7] = Aqueous solubility of compound at pH 7.4; details: buffer
[8] = Metabolic stability in rat hepatocytes assessed as half life
[9] = Metabolic stability in rat hepatocytes assessed as apparent intrinsic clearance measured per 10^6 cells
[10] = Metabolic stability in human liver microsomes assessed as half life
[11] = Cytotoxicity against human HepG2 cells measured after 72 hrs by hoechst 33342 staining based imaging assay; type: toxicity, cell-based
[12] = Lipophilicity, logD of compound at pH 7.4; details: buffer
[13] = tested on: Plasmodium falciparum; experiment: Antiplasmodial activity against Plasmodium falciparum strain NF54 assessed as 99% parasite clearance time in presence of 2% haematocrit and 0.5 % parasitemia at 10 times EC50 followed by media with compound exchanged daily measured after 2 weeks by standard hypoxanthine assay; type: functional

SMILES | EC50 ([1]; read-out: pEC50 (converted)) | CC50 at 72 h ([11]; read-out: CC50) | CC50 at 72 h ([11]; read-out: pCC50 (converted)) | EC50 ([1]; read-out: EC50) | also measured
O=C1C(O)=C([C@H]2CC[C@H](c3ccc(Cl)cc3)CC2)C(=O)c2ccccc21 [ATOVAQUONE] | 0.759 nM | – | – | – | EC50 ([2]; read-out: pEC50 (converted)): 0.851 nM; EC50 ([3]; read-out: pEC50 (converted)): 0.603 nM; EC50 ([4]; read-out: pEC50 (converted)): 1.95 nM; EC50 ([5]; read-out: pEC50 (converted)): < 1000 nM
Cc1ccc(N(C)C(=O)c2ncn(-c3ccc(Cl)cc3)n2)cc1 | 562 nM | > 10000 nM | > 10000 nM | – | microsomal CLint [6]: 41.1 µL/min/mg; solubility [7]: 4.4 µM (≈ 1.44 µg/mL); half-life [8]: < 7.5 min; CLH(app) [9]: > 92.4 µL/min; half-life [10]: 33.8 min; logD [12]: 3.36
CCc1nc(N)nc(N)c1-c1ccc(Cl)cc1 [PYRIMETHAMINE] | – | – | – | – | Time [13]: 25.9 h
CN(C(=O)c1ncc(-c2ccc(Cl)cc2)o1)c1ccc(Cl)cc1 | 170 nM | – | – | 170 nM | EC50 ([2]; read-out: EC50): 502 nM; EC50 ([2]; read-out: pEC50 (converted)): 501 nM; EC50 ([3]; read-out: EC50): 840 nM; EC50 ([3]; read-out: pEC50 (converted)): 832 nM; EC50 ([4]; read-out: EC50): 281 nM; EC50 ([4]; read-out: pEC50 (converted)): 282 nM; EC50 ([5]; read-out: EC50): 168 nM; EC50 ([5]; read-out: pEC50 (converted)): 166 nM
Cc1ccc(N(C)C(=O)c2ncn(-c3ccc(C)cc3)n2)cc1 | 1740 nM | > 10000 nM | > 10000 nM | – | microsomal CLint [6]: 125 µL/min/mg; half-life [8]: < 7.5 min; CLH(app) [9]: > 92.4 µL/min; half-life [10]: 11.1 min; logD [12]: 3.15
[2H]C([2H])([2H])N(C(=O)c1cc(-c2ccc(Cl)cc2)ccn1)c1ccc(Cl)cc1 | 200 nM | – | – | 198000 nM | EC50 ([2]; read-out: EC50): 588 nM; EC50 ([2]; read-out: pEC50 (converted)): 589 nM; EC50 ([3]; read-out: EC50): 608 nM; EC50 ([3]; read-out: pEC50 (converted)): 603 nM; EC50 ([4]; read-out: EC50): 199 nM; EC50 ([4]; read-out: pEC50 (converted)): 200 nM; EC50 ([5]; read-out: EC50): 104 nM; EC50 ([5]; read-out: pEC50 (converted)): 105 nM
Cc1ccc(NC(=O)c2ncn(-c3ccc(Cl)cc3)n2)cc1C | > 2880 nM | > 10000 nM | > 10000 nM | > 2890 nM | –
CCc1ccc(NC(=O)c2ncn(-c3ccc(Cl)cc3)n2)cc1 | > 6920 nM | > 10000 nM | > 10000 nM | > 6930 nM | –
Cc1ccc(C(=O)N(C)c2ncn(-c3ccc(C)cc3)n2)cc1 | > 3390 nM | > 10000 nM | > 10000 nM | > 3380 nM | –
COc1ccc(C[C@H](N)C(=O)N[C@H]2[C@@H](O)[C@H](n3cnc4c(N(C)C)ncnc43)O[C@@H]2CO)cc1 [PUROMYCIN] | 63.1 nM | – | 646 nM | – | –
CCc1ccc(-n2cnc(C(=O)N(C)c3cccc(C)c3)n2)cc1 | > 4270 nM | > 10000 nM | > 10000 nM | > 4260 nM | –
Cc1cccc(N(C)C(=O)c2ncn(-c3ccc(Cl)cc3)n2)c1 | > 4070 nM | > 10000 nM | > 10000 nM | > 4030 nM | –
O=C(Nc1ccc(F)cc1)c1ncn(-c2ccc(Cl)cc2)n1 | > 5890 nM | > 10000 nM | > 10000 nM | > 5880 nM | –
CN(C(=O)c1ncn(-c2ccc(Cl)cc2)n1)c1ccc(Cl)c(Cl)c1 | 933 nM | > 10000 nM | > 10000 nM | – | –
CN(C(=O)c1ncn(-c2ccc(Cl)cc2)n1)c1ccc(C(F)(F)F)cc1 | 3800 nM | > 6930 nM | > 6920 nM | – | –
Cc1ccc(-n2cnc(NC(=O)c3ccc(Cl)cc3)n2)cc1 | > 3020 nM | > 10000 nM | > 10000 nM | > 2990 nM | –
CN(C(=O)c1ncn(-c2ccc(Cl)cc2)n1)c1ccccc1 | > 13800 nM | > 10000 nM | > 10000 nM | > 13800 nM | –
Cc1ccc(C(=O)Nc2ncn(-c3ccc(Cl)cc3)n2)cc1 | > 10000 nM | > 10000 nM | > 10000 nM | > 10000 nM | –
Cc1ccc(-c2cncc(C(=O)N(C)c3ccc(Cl)cc3)c2)cc1 | – | > 10000 nM | > 10000 nM | – | microsomal CLint [6]: 228 µL/min/mg; half-life [8]: < 7.5 min; CLH(app) [9]: > 92.4 µL/min; half-life [10]: 6.1 min; logD [12]: 4.32
Cc1ccc(-c2ccnc(C(=O)N(C)c3ccc(Cl)cc3)c2)cc1 | 490 nM | > 10000 nM | > 10000 nM | – | –
C[C@H]1[C@@H](O)O[C@@H]2O[C@@]3(C)CC[C@H]4[C@H](C)CC[C@@H]1[C@@]24OO3 [ARTENIMOL] | 0.417 nM | – | – | – | EC50 ([2]; read-out: pEC50 (converted)): 0.661 nM; EC50 ([3]; read-out: pEC50 (converted)): 1.55 nM; EC50 ([4]; read-out: pEC50 (converted)): 2.95 nM; EC50 ([5]; read-out: pEC50 (converted)): 0.178 nM
